In patent US8802712B2, “Pyrazoloquinolines” (Merck Patent GmbH, priority 2010, dated 2014):
pIC50: −log10 of the molar value. Like-named read-outs stand apart in the source and are kept apart here.

Assays:
DNA-PK [1] = target: T1, DNA-PK (Homo sapiens (Human), UniProt P78527); test: DNA-PK/Biochemical Assay (FlashPlate kinase assay); conditions: 5 μM ATP, 90 min, room temperature
Procedure: The kinase assay was carried out in streptavidin-coated […] microtitre FlashPlates®. To this end, 1.5 μg of the DNA-PK/protein complex and 100 ng of biotinylated substrate, such as, for example, […] biotin-NH2 (“biotin-DNA-PK peptide”), in a total volume of 36.5 μl (34.25 mM HEPES/KOH, 7.85 mM Tris-HCl, 68.5 mM KCl, 5 μM ATP, 6.85 mM MgCl2, 0.5 mM EDTA, 0.14 mM EGTA, 0.69 mM DTT, pH 7.4), were incubated at room temperature for 90 min with 500 ng of DNA from calf thymus, 0.1 μCi of 33P-ATP and 1.8% of DMSO per well with or without the test compound. The reaction was stopped using 50 μl/well of 200 mM EDTA. After incubation for a further 30 min at room temperature, the liquid was removed. Each well was washed three times with 100 μl of 0.9% sodium chloride solution. A non-specific reaction (blank value) was determined using 10 μM of a proprietary kinase inhibitor. The radioactivity measurement was carried out by means of a TopCount. IC50 values were calculated in RS1. • Literature: Kashishian et al. (2003) Molecular Cancer Therapeutics 1257.

[2] = system: colorectal carcinoma cell line HCT116; test: Cellular Colony Growth Test with X-ray irradiation; type: cell-based; conditions: Homo sapiens, HCT-116, 4.8 Gy X-rays
Procedure: Cellular Colony Growth Test The colorectal carcinoma cell line HCT116 was cultivated in MEM alpha medium with 10% oif foetal calf serum, 1 mM sodium pyruvate and 2 mM glutamine at 37° C. and 10% CO2. The cells were detached from the base of the culture vessels with the aid of trypsine/EDTA, centrifuged off in centrifuge tubes and taken up in fresh medium. The cell density was subsequently determined. 300 cells were sown out in 6-well cell culture plates in 2 ml of culture medium and cultivated overnight. Next day, the cells were treated with test substances for one hour before the cell culture plates were treated with defined doses of X-rays (in general 0, 2.4, 4.8, 12 Gray; irradiation instrument: Faxitron RX-650; Faxitron X-Ray LLC, USA). In order to determine the dose/effect relationships, the cells were treated with various concentrations of a test substance. After irradiation, the cells are cultivated for a further 24 hours in the presence of the test substance, the culture medium was then replaced with culture medium without test substance, and the cells were cultivated for a further 6-8 days. The cell colonies formed were subsequently stained with the aid of Crystal Violet and counted in a colony counter (Gelcount, Oxford Optronics, UK). Dose/effect curves, in particular IC50 values, were determined using a curve adaptation function for nonlinear dose/effect relationships.

[3] = system: CHK2 phosphorylation at threonine 68 in HCT116 cells; test: Cellular CHK2 Phosphorylation at Threonine 68; type: cell-based; conditions: Homo sapiens, HCT-116, 6 h; HCT116, 10 μM bleomycin, six hours, ELISA; read-out: IC50 (CHK2 phospho-threonine 68)
Procedure: Cellular CHK2 Phosphorylation at Threonine 68
HCT116 cells were cultivated in MEM alpha medium with 10% of foetal calf serum, 1 mM sodium pyruvate and 2 mM glutamine at 37° C. and 10% CO2. The cells were detached from the base of the culture vessels with the aid of trypsine/EDTA, centrifuged off in centrifuge tubes and taken up in fresh medium. The cell density was subsequently determined. 50,000 cells were sown per cavity of a 96-well cell culture plate in 0.1 ml of culture medium and cultivated overnight. Next day, 10 μM bleomycin and test substances in fresh culture medium were added to the cells and these were cultivated for a further six hours. After lysis of the cells, phospho-threonine 68 of the CHK2 kinase was detected in the lysates with the aid of a phospho-CHK2 (Thr68)-specific ELISA detection system (Catalogue No. 7037, Cell Signaling Technologies, USA). The ELISA colour reaction was measured spectrophotometrically at 450 nm. The extinction of the unstimulated controls (vehicle control without bleomycin) was subtracted from the extinction values of the treatment groups. The controls which were treated with bleomycin were set equal to 100% and all other extinction values were set in relation thereto. IC50 values were determined with the aid of the GraphPad Prism statistics program (GraphPad Software, USA) or Assay Explorer (Symyx Technologies Inc., USA).

[4] = system: kinases of the PI3K isoenzyme family; conditions: cited from earlier work
DNA-PK [5] = target: T1, DNA-PK; conditions: 5.0 mM ATP; cited from earlier work
mammal cells = conditions: in cellular terms; cited from earlier work
DNA-PK [6] = target: T1, DNA-PK; conditions: ATP-competitive; cited from earlier work

pIC50 (DNA-PK [1]) | Structure (SMILES) | also measured
> 7.00 | COc1cc2c(cc1O)ncc1c2c(-c2ccc(C#N)cc2)nn1C [Compound 4, 4-(7-Hydroxy-8-methoxy-3-methyl-3H-pyrazolo-[3,4-c]quinolin-1-yl)-benzonitrile] | melting point: 288.9 °C
> 7.00 | COc1cc2ncc3c(c(-c4ccc(C#N)cc4)nn3C)c2cc1OC(C(N)=O)c1ccc(F)cc1 (stereo not shown) [Compound 8, 2-[1-(4-Cyanophenyl)-7-methoxy-3-methyl-3H-pyrazolo[3,4-c]quinolin-8-yloxy]-2-(4-fluorophenyl)-acetamide] | melting point: 249.2 °C
< 7.00 | COc1cc2ncc3c(c(-c4ccc(C#N)cc4)nn3C)c2cc1OCCN(C)C [Compound 40, 4-[8-(2-Dimethylamino-ethoxy)-7-methoxy-3-methyl-3H-pyrazolo[3,4-c]quinolin-1-yl]benzonitrile] | melting point: 212.2 °C
6.30 to 7.00 | CCN1CCN(CCNC(=O)C(Oc2cc3c(cc2OC)ncc2c3c(-c3ccc(C#N)cc3)nn2C)c2ccc(F)cc2)CC1 (stereo not shown) [Compound 48, 2-[1-(4-Cyano-phenyl)-7-methoxy-3-methyl-3H-pyrazolo-[3,4-c]quinolin-8-yloxy]-N-[2-(4-ethyl-piperazin-1-yl)ethyl]-2-(4-fluorophenyl)-acetamide] | melting point: 110 to 112 °C
> 7.00 | CCn1nc(-c2ccc(C#N)cc2)c2c3cc(OC)c(OC)cc3ncc21 [Compound 56, 4-(7,8-Dimethoxy-3-ethyl-3H-pyrazolo[3,4-c]quinolin-1-yl)-benzonitrile] | melting point: 227.4 °C
6.30 to 7.00 | COc1cc2ncc3c(c(-c4ccc(C#N)cc4)nn3CC(N)=O)c2cc1OC [Compound 68, 2-[1-(4-Cyanophenyl)-7,8-dimethoxypyrazolo[3,4-c]-quinolin-3-yl]acetamide] | –
> 7.00 | COc1cc2ncc3c(c(-c4ccc(C#N)cc4)nn3C(F)F)c2cc1OC [Compound 69, 4-(3-Difluoromethyl-7,8-dimethoxy-3H-pyrazolo[3,4-c]-quinolin-1-yl)benzonitrile] | –
> 7.00 | COc1cc2ncc3[nH]nc(-c4ccc(C#N)c(N5CCCC5)c4)c3c2cc1OC [Compound 70, 4-(7,8-Dimethoxy-3H-pyrazolo[3,4-c]quinolin-1-yl)-2-pyrrolidin-1-yl-benzonitrile] | melting point: 291 °C (dec.)
> 7.00 | COCc1cc(-c2nn(C)c3cnc4cc(OC)c(OC)cc4c23)ccc1C#N [Compound 71, 4-(7,8-Dimethoxy-3-methyl-3H-pyrazolo[3,4-c]quinolin-1-yl)-2-methoxymethyl-benzonitrile] | –
> 7.00 | COC(=O)c1cc(-c2[nH]nc3cnc4cc(OC)c(OC)cc4c23)ccc1C#N [Compound 72, 2-Cyano-5-(7,8-dimethoxy-3H-pyrazolo[3,4-c]quinolin-1-yl)benzoic acid methyl ester] | –
> 7.00 | COc1cc2ncc3n[nH]c(-c4ccc(C#N)c(C(=O)O)c4)c3c2cc1OC [Compound 73, 2-Cyano-5-(7,8-dimethoxy-3H-pyrazolo[3,4-c]quinolin-1-yl)benzoic acid] | –
< 6.30 | COc1cc2ncc3n[nH]c(-c4ccc(C#N)c(-c5ccccc5)c4)c3c2cc1OC [Compound 74, 5-(7,8-Dimethoxy-3H-pyrazolo[3,4-c]quinolin-1-yl)biphenyl-2-carbonitrile] | –
6.30 to 7.00 | CCN1CCN(c2ccc(-c3nn(C)c4cnc5cc(OC)c(OC)cc5c34)cc2)CC1 [Compound 75, 1-[4-(4-Ethylpiperazin-1-yl)-phenyl]-7,8-dimethoxy-3-methyl-3H-pyrazolo[3,4-c]-quinoline] | –
> 7.00 | COc1cc2ncc3c(c(-c4ccccc4F)nn3C)c2cc1OC [Compound 76, 1-(2-Fluorophenyl)-7,8-dimethoxy-3-methyl-3H-pyrazolo[3,4-c]quinoline] | –
> 7.00 | COc1cc2ncc3c(c(-c4ccc(C#N)cc4F)nn3C)c2cc1-c1cccnc1 [Compound 77, 3-Fluoro-4-(7-methoxy-3-methyl-8-pyridin-3-yl-3H-pyrazolo[3,4-c]-quinolin-1-yl)-benzonitrile] | –
> 7.00 | COc1cc2ncc3c(c(-c4ccc(C#N)cc4F)nn3C)c2cc1-c1cnc2ccccc2c1 [Compound 78, 3-Fluoro-4-(7-methoxy-3-methyl-8-quinolin-3-yl-3H-pyrazolo[3,4-c]-quinolin-1-yl)-benzonitrile] | –
> 7.00 | COc1cc2ncc3c(c(-c4ccc(-c5ccn[nH]5)cc4)nn3C)c2cc1OCc1cncs1 [Compound 79, 7-Methoxy-3-methyl-1-[4-(2H-pyrazol-3-yl)phenyl]-8-(thiazol-5-ylmethoxy)-3H-pyrazolo[3,4-c]quinoline] | –
> 7.00 | COc1cc2ncc3c(c(-c4ccc(-c5ccn[nH]5)cc4)nn3C)c2cc1-c1cn[nH]c1 [Compound 88, 7-Methoxy-3-methyl-8-(1H-pyrazol-4-yl)-1-[4-(2H-pyrazol-3-yl)phenyl]-3H-pyrazolo[3,4-c]quino-line] | –
> 7.00 | COc1cc2ncc3c(c(-c4ccc(C#N)cc4F)nn3C)c2cc1-c1cc[nH]c1 [Compound 89, 3-Fluoro-4-[7-methoxy-3-methyl-8-(1H-pyrrol-3-yl)-3H-pyrazolo[3,4-c]-quinolin-1-yl]-benzonitrile] | –
– | COc1cc2ncc3c(c(-c4ccc(C#N)cc4F)nn3C)c2cc1OC [Compound 90, 4-(7,8-Dimethoxy-3-methyl-3H-pyrazolo-[3,4-c]quinolin-1-yl)-3-fluorobenzonitrile] | pIC50 [2]: 6.30 to 7.00
– | COc1cc2ncc3c(c(-c4ccc(C#N)cc4F)nn3C)c2cc1OC(C(N)=O)c1ccccc1 (stereo not shown) [Compound 91, 2-[1-(4-Cyano-2-fluoro-phenyl)-7-methoxy-3-methyl-3H-pyrazolo[3,4-c]-quinolin-8-yloxy]-2-phenyl-acetamide] | pIC50 [3]: 6.30 to 7.00
– | CCN1CCN(CC(=O)Nc2ccc(-c3cccc4c(=O)cc(N5CCOCC5)oc34)c3sc4ccccc4c23)CC1 [KU-0060648] | inhibition of kinases of the PI3K isoenzyme family [4]: potently inhibited
– | O=c1cc(N2CCOCC2)oc2c(-c3ccccc3)cccc12 [LY294002] | pIC50 (DNA-PK [5]): 5.90; increase in sensitivity to ionising irradiation (mammal cells): only a weak increase in sensitivity
– | O=c1cc(N2CCOCC2)oc2c(-c3cccc4c3sc3ccccc34)cccc12 [NU-7441] | pIC50 (DNA-PK [6]): 7.70
